According to patent US9572760B2, “Uses of compounds and mixtures from Antrodia cinnamomea mycelia” (Simpson Biotech Co., Ltd., priority 2013, dated 2017):

Test system: Mouse primary HSC
Experiment: Profibrogenic gene expression in primary hepatic stellate cells (qRT-PCR)
Type: cell-based
Details: for Collagen-1 expression / TGF-β expression / TIMP-1 expression / αSMA expression: two concentrations, 72 hrs
Excerpt: The AML12 (mouse hepatocyte) cells were obtained from the BCRC (Bioresource Collection and Research Center) and cultured in Dulbecco's modified Eagle media (DMEM, Gibco by Invitrogen) with 1% antibiotic antimycotic (Gibco by Invitrogen) and 15% fetal bovine serum (Gibco by Invitrogen). The human Hepatic Stellate Cell, HSC cell line was obtained from the ScienCell Research Laboratory (USA) and cultured in complete medium, Stellate Cell Medium (ScienCell Research Laboratory) with 2% fetal bovine serum (ScienCell Research Laboratory), 1% stellate cell growth supplement (ScienCell Research Laboratory) and 1% penicillin/streptomycin solution (ScienCell Research Laboratory). It is well known that TGF-β1 can activation of HSC, which was used as a positive control, the HSC cells were seeded in plate for 24 h and then the cells were replaced with medium containing 10 ng TGF-β1 (PeproTech, USA). For primary hepatic stellate cell isolation, C57BL/6 mice were anesthetized by intraperitoneal injection of ketamine and xylazine. […] Mouse livers were perfused in situ with 0.5 mM EGTA containing calcium-free salt solution (8 ml/min, 37° C. for 5 minutes), followed by perfusion with 2-step 0.05% collagenase D and pronase containing buffer (Roche Molecular Biochemicals, Indianapolis, Ind.) for 5 and 10 minutes, respectively. The harvested liver was minced gently on a Petri dish and additional incubation with protease containing buffer at 37° C. for 25 minutes. Then, the liver was filtered with 70 μm cell strainer. Cells were centrifuged and collected followed by 8.2% Nycodenz (Accurate Chemical and Scientific Corp.). The cell lines were cultured at 37° C. in a humidified atmosphere containing 5% CO2.
Exponentially growing cells were harvested and seeded in a 6-well microtiter plate. Each well of cells were collected to eppendrof in 1 mL of TRIzol buffer (Invitrogen, Carlsbad, Calif., USA), and then mixed with 0.5 mL chloroform/isoamyl alcohol (24:1), eppendrofs were centrifuged at 12,000×g for 10 min at 4° C. The supernatant was transferred to a fresh tube, and isopropanol was added, mix well and stored at −80° C. overnight. The reaction mixture was centrifuged at 12,000×g for 30 min at 4° C. to produce a rude RNA pallet, the pellet was washed with 70% ethanol and air-dried. The concentrations of total RNA were measured by absorbance at 260 nm using a NanoDrop ND-1000 (NanoDrop, USA).
Reverse transcription reaction was performed using a commercially available set of High Capacity RNA-to-cDNA Kit (Applied Biosystems, USA). cDNA was prepared from 2 μg of total RNA per 20 μl reaction, according to the manufacturer's instructions—37° C. for 60 minutes, 95° C. for 5 minutes, and hold at 4° C. The resulting cDNA was to a final concentration of 100 ng/μl and constituted a matrix in further experiments.
Amplification and detection the gene expression by real-time PCR were performed using StepOne plus Real-time PCR System (Applied Biosystems, USA). Samples were assayed in a 10 μl reaction mixture containing 2 μl of template DNA, 5 μl of 2× TaqMan PCR Master Mix (Applied Biosystems, Life Technologies, Foster City, Calif., USA), 0.5 μl of 20× assay mix containing probe, forward and reverse primer (Applied Biosystems, Life Technologies, Foster City, Calif., USA), whereby qPCR targets with the following information were used: (a) α-SMA, Assay ID Rn01759928_g1, (b) TIMP-1, Assay ID Rn00587558_m1, (c) TGF-β1, Assay ID Rn00572010_m1, (d) Collagen I, Assay ID Rn 01463838_m1, (e) GAPDH, Assay ID Rn1462662_g1. To control variation in mRNA concentration, all results were normalized to the housekeeping gene, GAPDH. Relative quantitation was performed using the comparative ΔΔCt method according to the manufacturer's instructions. The cycling conditions used were as follows: 50° C. for 2 min, 95° C. for 10 min followed by 40 cycles of 95° C. for 15 s and 60° C. for 1 min each. […]

Compound	anti-fibrosis effect on primary HSC (summary)	Collagen-1 expression	TGF-β expression	TIMP-1 expression	αSMA expression
CC(C)=CCOc1ccc(C2=C(CC(C)C)C(=O)N(O)C2=O)cc1 [Compound C, 3-isobutyl-4-[4-(3-methyl-2-butenyloxy)phenyl]-1H-pyrrol-1-ol-2,5-dione]	anti-fibrosis effect	dose-dependent effect	dose-dependent effect	dose-dependent effect	dose-dependent effect
CC(C)=CCOc1ccc(C2=C(CC(C)C)C(=O)NC2=O)cc1 [Compound B, 3-isobutyl-4-[4-(3-methyl-2-butenyloxy)phenyl]-1H-pyrrol-2,5-dione]	anti-fibrosis effect	dose-dependent effect	dose-dependent effect	dose-dependent effect	dose-dependent effect
